Reference: PMC5314825 (Journal of Pharmacy & Bioallied Sciences, 2016)

Biological target: aldose reductase (AR) (Capra hircus, UniProt A0A452EAQ3)
Test: NADPH oxidation at […] nm with xylose as substrate
Assay type: cell-based
Details: read-out: % inhibition at 4.5 μg/ml

inhibition at 4.5 µg/mL: 64.6%
Structure (SMILES): O=c1c(O)c(-c2ccc(O)c(O)c2)oc2cc(O)cc(O)c12 [quercetin]
